Test results taken from patent US9408826B2, “Isoflavone anti-viral compounds” (Kineta, Inc., priority 2010, dated 2016).

Test system: Murine Encephalomyocarditis virus (EMCV)
Experiment: EMCV antiviral assay (cell viability by MTS)
Type: cell-based
Details: Huh7 cells; for Cell viability post-infection: EMCV 250 pfu, MTS
Procedure: Huh7 cells were grown under normal growth conditions and treated with the indicated amount of drug in media containing 0.5% DMSO. The cells were grown in the presence of drug for 5 hours and then infected with 250 pfu Murine Encephalomyocarditis virus (EMCV) for example obtained from ATCC #VR-129B. Infected cells were grown for an additional 18 hours and then cell viability was measured using an MTS assay. Negative control cells were treated with buffer alone containing 0.5% DMSO. Interferon treatment was used as a positive control for virus inhibition and was added similar to drug treatments at a final concentration of 10 IU/mL for example Interferon-α: Intron A, from Schering-Plough. Cell viability was measured using an MTS assay such as; CellTiter 96® AQueous One Solution Cell Proliferation Assay (MTS), from Promega #G3580.

Question: What does the source list for `CS(=O)(=O)Oc1ccc2c(=O)c(-c3ccc(Br)cc3)coc2c1` [KIN101, [3-(4-bromophenyl)-4-oxo-chromen-7-yl] methanesulfonate]?
Answer: Cell viability post-infection (5 μM drug): ~0.7; Cell viability post-infection (10 μM drug): ~1.2; Cell viability post-infection (20 μM drug): ~1.45; Protection of cell viability following infection with EMCV (in words): protective of cell viability
